According to patent US9248163B2, “Insulin-like growth factor binding protein 7 for treatment of cancer” (University of Massachusetts, priority 2007, dated 2016):

Assays:
[1] = test system: IGFBP7 expression in melanoma cell lines; experiment: IGFBP7 mRNA (qRT-PCR) in melanoma cell lines after 5-aza treatment; format: cell-based, human; conditions: 10 μM, 48 hours
Method: Total RNA was isolated using TRIZOLTM (Invitrogen) 7 days after retroviral transduction and puromycin selection. Reverse transcription was performed using SuperScriptTM II Reverse Transcriptase (Invitrogen) as per the manufacturer's instructions, followed by quantitative real-time PCR using Platinum SYBRTM Green qPCR SuperMix-UDG with Rox (Invitrogen). Bisulfite modification was carried out essentially as described (Frommer et al., 1992, Proc. Natl. Acad. Sci. USA, 89:1827-31), except that hydroquinone was used at a concentration of 125 mM during bisulfite treatment (carried out in the dark) and DNA was desalted on […] columns (Qiagen) after the bisulfite reaction. Six clones were sequenced for each cell line or human tissue sample. For 5-aza-2'-deoxycytidine (5-aza) treatment, melanoma cell lines were treated with 10 μM 5-aza (Calbiochem) for 48 hours.

SK-MEL-28 cells = experiment: Immunoblot analysis of SMARCB1, BNIP3L and activated caspase 3; format: cell-based, human; conditions: 24 hours, unlike rIGFBP7
Method: (§1) To prepare cell extracts, cells were lysed in Laemmli buffer; for phospho-proteins, cells were lysed in the presence of a phosphatase inhibitor cocktail (Sigma). To prepare conditioned media, cells were grown in Opti-MEM™ (Invitrogen) for 24 hours, and media was harvested and concentrated using Centricon™ plus 20 tubes (Millipore). Conditioned media was normalized to cell number prior to loading the gel. For the experiments shown in FIGS. 3D and 4C, rIGFBP7 was added to the culture medium at a concentration of 10 μg/ml. For the MEK/RAF inhibitor experiment of FIG. 4D, SK-MEL-28 cells were treated with 2 μg/ml or 10 μg/ml rIGFBP7, 20 μM or 40 μM of the MEK inhibitor PD98054 (Calbiochem), or 5 nM or 10 nM the RAF inhibitor GW5074 (Sigma) for 24 hours prior to harvesting cells. Proteins were resolved by SDS-PAGE and transferred to nitrocellulose. Blots were probed with the following antibodies: α-p16 (Abcam), α-acetylated H3K9 (Upstate), α-IGFBP7 (Santa Cruz), α-SMARCB1 (Abnova), α-BNIP3L (Proscience), α-BRAFV600E (Santa Cruz), α-cleaved caspase-3 p11 (Santa Cruz), α-β-actin (Sigma), α-phospho-ERK (Cell Signaling) or α-ERK (Cell Signaling).

[2] = test system: BRAF-MEK-ERK signaling in SK-MEL-28 cells; experiment: Immunoblot analysis of BRAF-MEK-ERK signaling (phospho-ERK, activated MEK1/2, RKIP); format: cell-based, human; conditions: SK-MEL-28 cells, 24 hours; PD98054 20 or 40 μM, GW5074 5 or 10 nM
Method: as §1
To test this idea, rIGFBP7 was added to BRAFV600E-positive SK-MEL-28 melanoma cells, and the levels of total and activated ERK (phospho-ERK) were analyzed.

[3] = test system: NCI 60 panel of human cancer cell lines; experiment: Growth inhibition of the NCI 60 panel cell lines by MEK inhibitor; format: cell-based
Method: The growth dependence of the above cell lines on the Ras-BRAF-MEK-Erk signaling pathway was also determined. 1.5×10^5 cells of each cell line were treated with 20 μM of the MEK inhibitor U0216 (Cell Signaling) for 24 hours, and growth of the cell lines was determined. U0216 inhibited growth in 11/11 (100%) of the cell lines that contained a BRAF mutation and 11/13 (84.6) of the cell lines that contained a RAS mutation. The one cell line that contained both a BRAF and a RAS mutation was susceptible to growth inhibition by U0216.

Nc1ncn([C@H]2C[C@H](O)[C@@H](CO)O2)c(=O)n1 [5-aza-2′-deoxycytidine]
IGFBP7 expression ([1]; BRAF/RAS-wild type cell lines): no effect
IGFBP7 expression ([1]; BRAFV600E- and NRASQ61R-positive cell lines): restored IGFBP7 expression

O=C1Nc2ccc(I)cc2/C1=C/c1cc(Br)c(O)c(Br)c1 [RAF inhibitor, reference compound]
BNIP3L levels and induction of apoptosis (SK-MEL-28 cells): did not increase BINP3L levels or efficiently induce apoptosis
BRAF-MEK-ERK signaling [2]: blocked BRAF-MEK-ERK signaling

N#CC(=C(/N)Sc1ccccc1N)/C(C#N)=C(/N)Sc1ccccc1N [U0216]
cell lines in which growth was inhibited ([3]; cell lines that contained a BRAF mutation (11/11), 20 μM, 24 hours): 100%
cell lines in which growth was inhibited ([3]; cell lines that contained a RAS mutation (11/13), 20 μM, 24 hours): 84.6
cell lines susceptible to growth inhibition ([3]; cell lines without a BRAF or RAS mutation, 20 μM, 24 hours): 0/34
susceptibility to growth inhibition ([3]; one cell line with both a BRAF and a RAS mutation): susceptible
